Target: T1, human vasopressin V2 receptor subtype (Homo sapiens, UniProt P30518)
T1 construct: host or cells: CHO cells (pZeoSV vector)
Experiment: Vasopressin binding in Chinese Hamster Ovary cell membranes expressing human vasopressin V2 subtype receptors
Conditions: 100 nM, CHO cell membranes, [3H]arginine vasopressin, values without parentheses
Protocol: Vasopressin Binding in Chinese Hamster Ovary Cell Membranes Expressing Human Vasopressin V2 Subtype Receptors
Chinese Hamster Ovary (CHO) cells stably transfected with the human V2 subtype receptors were obtained from M. Thibonnier, Case Western Reserve University School of Medicine, Cleveland, Ohio.
A. Passaging and Amplification of Cells:
The trypsin is removed by aspiration and the cells dislodged by tapping. Cell Culture medium (e.g. 30 mL for 1:30 split) is immediately added and mixed well to inactivate trypsin. 1 mL of detached cells is added to new culture flasks containing fresh Cell Culture medium (e.g. into 25 mL per T-150 flask), and mixed gently. The cells are incubated at 37° C. in 5% CO2. The medium is changed at 3 to 4 day interval (or as appropriate). […] All steps are done under sterile conditions. B. Membrane Preparation: The cells are washed twice gently with Hank's Balanced Salt solution (e.g. use 10 mL per T-150 flask). […] The contents are transferred to centrifuge tubes (50 mL) kept in ice bath. All subsequent steps are done at 4° C. The tubes are centrifuged at 300×g for 15 min (1380 rpm on SORVAL, Model RT6000D, using the rotor for 50 mL tubes). The supernatant is discarded and the cells suspended in homogenizing buffer (10 mM Tris-HCl containing 0.25 M sucrose and 1 mM EDTA, pH 7.4) ensuring that the volume of the buffer is about ten times the volume of the cell pellet. The cells are pooled into a centrifuge tube (50 mL) and homogenized with a Polytron at setting 6 for 10 sec. The homogenate is transferred into a Potter-Elvjehm homogenizer and homogenized with 3 strokes. The homogenate is centrifuged at 1500×g for 60 min at 4° C. (3100 rpm using SORVAL, model RT6000D, using the rotor for 50 mL tubes). The pellet is discarded. The supernatant is centrifuged at 100,000×g for 60 min. at 4° C. (Beckman L8-80M ultracentrifuge; spin at 37,500 rpm with rotor type 70 Ti for 50 mL tubes; 38,000 rpm with type 80Ti for 15 mL tubes; or 35,800 rpm with rotor type 45Ti). The supernantant is discarded and the pellet suspended in 3 to 4 mL of Tris buffer (50 mM TRIS-HCl, pH 7.4). The protein content is estimated by the Bradford or Lowry method. The volume of the membrane suspension is adjusted with the membrane buffer (50 mM Tris-HCl containing 0.1% BSA and 0.1 mM PMSF) to give 3.0 mg/mL (or as appropriate) of protein. The membranes are aliquoted and stored at −70° C. C. Radioligand Binding Assay: In wells of a 96-well format microtiter plate, is added 90, 110 or 130 μL (to make up a final volume of 200 μL) of assay buffer containing 50 mM of Tris-HCl (pH 7.4), […], 1 mg % aprotinin, 1 mg % leupeptin, 2 mg % 1,10-phenanthroline, 10 mg % trypsin inhibitor, and 0.1 mM PMSF. The inhibitors are added on the day of the experiment. The components are mixed at room temperature, and then kept in ice bath following adjustment of the pH to 7.4. […] For vasopressin and other peptide ligands 20 μL of 50% DMSO is added and the assay buffer volume is adjusted accordingly. To each well is added 50 μL of frozen membrane suspension thawed immediately prior to use and diluted in assay buffer to the required concentration (equivalent to 25 to 50 μg of protein/well as needed). 20 μL of 8 nM [^3H]arginine vasopressin ligand in the assay buffer, prepared just before use is added and incubated at room temperature for 60 min. shaking the plate on a mechanical shaker for the first 15 min. The incubation is stopped by rapid filtration of the plate contents followed by wash with ice-cold buffer (50 mM Tris-HCl, pH 7.4) using a cell harvester (Tomtek and Printed filtermat-B filter paper). The filter paper is thoroughly dried (7–12 min. in a microwave oven) and impregnated with MeltiLex B/H melt-on scintillation wax sheets and the radioactivity counted in a betaplate scintillation counter.

T1 sequence (P30518 whole entry): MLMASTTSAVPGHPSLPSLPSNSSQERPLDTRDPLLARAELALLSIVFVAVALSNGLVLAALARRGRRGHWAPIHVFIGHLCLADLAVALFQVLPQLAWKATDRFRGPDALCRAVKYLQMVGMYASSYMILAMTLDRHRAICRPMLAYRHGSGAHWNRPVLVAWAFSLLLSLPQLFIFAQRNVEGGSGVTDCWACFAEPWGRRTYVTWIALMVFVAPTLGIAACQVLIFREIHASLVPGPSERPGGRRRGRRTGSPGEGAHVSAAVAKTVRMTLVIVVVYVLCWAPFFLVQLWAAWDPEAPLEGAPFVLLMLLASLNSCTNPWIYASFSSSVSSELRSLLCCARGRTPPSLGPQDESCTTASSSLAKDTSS

inhibition at 0.1 µM | SMILES | V2 % inhibition @ 100 nM
8% | COc1cccc(-c2ccc(C(=O)N3Cc4ccc(C(=O)N(C)CCCN(C)C)n4Cc4ccccc43)cc2OC)c1 [Example 108, 10-[(2,3′-Dimethoxy[1,1′-biphenyl]-4-yl)carbonyl]-N-[3-(dimethylamino)propyl]-N-methyl-10,11-dihydro-5H-pyrrolo[2,1-c][1,4]benzodiazepine-3-carboxamide] | –
8% | COc1cccc(-c2ccc(C(=O)N3Cc4ccc(C(=O)NCCCn5ccnc5)n4Cc4ccccc43)cc2C)c1 [Example 125, N-[3-(1H-Imidazol-1-yl)propyl]-10-[(3′-methoxy-2-methyl[1,1′-biphenyl]-4-yl)carbonyl]-10,11-dihydro-5H-pyrrolo[2,1-c][1,4]benzodiazepine-3-carboxamide] | –
– | Cc1ccccc1-c1ccc(C(=O)N2Cc3ccc(C(=O)N4CC[C@@H](N(C)C)C4)n3Cc3ccccc32)cc1 [Example 280, [(3R)-3-(Dimethylamino)pyrrolidinyl]{10-[(2′-methyl[1,1′-biphenyl]-4-yl)carbonyl]-10,11-dihydro-5H-pyrrolo[2,1-c][1,4]benzodiazepin-3-yl}methanone] | 6%
– | COc1cc(C(=O)N2Cc3ccc(C(=O)N4CCC[C@H]4CN4CCCC4)n3Cc3ccccc32)ccc1-c1ccccc1C [Example 266, {10-[(2-Methoxy-2′-methyl[1,1′-biphenyl]-4-yl)carbonyl]-10,11-dihydro-5H-pyrrolo[2,1-c][1,4]benzodiazepin-3-yl}[(2S)-2-(1-pyrrolidinylmethyl)pyrrolidinyl]methanone] | −17%
5% | COc1cccc(-c2cc(OC)c(C(=O)N3Cc4ccc(C(=O)NCCCn5ccnc5)n4Cc4ccccc43)cc2Cl)c1 [Example 130, 10-[(6-Chloro-3,3′-dimethoxy[1,1′-biphenyl]-4-yl)carbonyl]-N-[3-(1H-imidazol-1-yl)propyl]-10,11-dihydro-5H-pyrrolo[2,1-c][1,4]benzodiazepine-3-carboxamide] | –
15% | COc1ccccc1-c1ccc(C(=O)N2Cc3ccc(C(=O)NCCCn4ccnc4)n3Cc3ccccc32)cc1C [Example 123, N-[3-(1H-Imidazol-1-yl)propyl]-10-[(2′-methoxy-2-methyl[1,1′-biphenyl]-4-yl)carbonyl]-10,11-dihydro-5H-pyrrolo[2,1-c][1,4]benzodiazepine-3-carboxamide] | –
3% | Cc1ccccc1-c1ccc(C(=O)N2Cc3ccc(C(=O)NCCCn4ccnc4)n3Cc3ccccc32)cc1 [Example 127, N-[3-(1H-Imidazol-1-yl)propyl]-10-[(2′-methyl[1,1′-biphenyl]-4-yl)carbonyl]-10,11-dihydro-5H-pyrrolo[2,1-c][1,4]benzodiazepine-3-carboxamide] | –
9% | Cc1ccccc1-c1ccc(C(=O)N2Cc3ccc(C(=O)N4CCC(N5CCCCC5)CC4)n3Cc3ccccc32)cc1C [Example 113, {10-[(2-Methyl-2′-methyl[1,1′-biphenyl]-4-yl)carbonyl]-10,11-dihydro-5H-pyrrolo[2,1-c][1,4]benzodiazepin-3-yl}[4-(1-piperidinyl)-1-piperidinyl]methanone] | –
10% | COc1ccccc1-c1ccc(C(=O)N2Cc3ccc(C(=O)NCCN4CCCCC4)n3Cc3ccccc32)cc1 [Example 152, 10-[(2′-Methoxy[1,1′-biphenyl]-4-yl)carbonyl]-N-[2-(1-piperidinyl)ethyl]-10,11-dihydro-5H-pyrrolo[2,1-c][1,4]benzodiazepine-3-carboxamide] | –
– | COc1ccccc1-c1ccc(C(=O)N2Cc3ccc(C(=O)N4CC[C@@H](N(C)C)C4)n3Cc3ccccc32)cc1 [Example 279, [(3R)-3-(Dimethylamino)pyrrolidinyl]{10-[(2′-methoxy[1,1′-biphenyl]-4-yl)carbonyl]-10,11-dihydro-5H-pyrrolo[2,1-c][1,4]benzodiazepin-3-yl}methanone] | 17%

Reference: patent US7109193B2, “Tricyclic diazepines tocolytic oxytocin receptor antagonists” (Wyeth, priority 2001, dated 2006)
